Converted amounts (≈) assume the structure as drawn.
Columns and labels:
MRSA ATCC 43300 = experiment: MIC, broth microdilution (CO-ADD), MRSA; format: cell-based, methicillin-resistant S. aureus; conditions: Staphylococcus aureus; MRSA ATCC 43300; top dose 32 µg/mL; read-out: MIC MRSA
[1] = test system: C. neoformans ATCC 208821; experiment: Antifungal MIC (CO-ADD), C. neoformans; format: cell-based; conditions: Cryptococcus neoformans, ATCC208821, top dose 32 µg/mL
Experimental: (§1) For the antifungal assay, fungi strains were cultured for 3 days on YPD agar at 30 °C. A yeast suspension of 1 × 10^6 to 5 × 10^6 CFU/mL was prepared from five colonies. These stock suspensions were diluted with a yeast nitrogen base (YNB) (Becton Dickinson, 233520, New South Wales, Australia) broth to a final concentration of 2.5 × 10^3 CFU/mL. […] The plates were covered and incubated at 35 °C for 36 h without shaking. C. albicans MICs were determined by measuring the absorbance at OD530. For C. neoformans, resazurin was added at a 0.006% final concentration to each well and incubated for a further 3 h before the MICs were determined by measuring the absorbance at OD570–600. […] Fluconazole was used as a positive fungal inhibitor standard for C. albicans and C. neoformans. […] The quality control (QC) of the assays was determined by the antimicrobial controls and the Z′-factor (using positive and negative controls).

C. albicans ATCC 90028 = experiment: Antifungal MIC (CO-ADD), C. albicans; format: cell-based; conditions: Candida albicans, ATCC90028, top dose 32 µg/mL
Experimental: as §1

E. coli ATCC 25922 [2] = experiment: Erythromycin potentiation against E. coli; format: cell-based, Escherichia coli; conditions: erythromycin at 2 µg/mL (2.7 µM); for Erythro/Ec fold-change (intrinsic MIC / combination MIC): E. coli; for Erythro/Ec: concentration required to restore erythromycin activity (combination MIC): mean n = 3
From the text: (§2) These measurements were independently repeated in triplicate.

[3] = Cytotoxicity assay (resazurin); format: cell-based; conditions: human, HEK293 cells, mean n = 2
S. aureus ATCC 25923 = experiment: MIC, broth dilution, S. aureus; format: cell-based, Staphylococcus aureus; conditions: Staphylococcus aureus, ATCC25923; S. aureus ATCC 25923, 18 h; read-out: MIC Sa
A. baumannii ATCC 19606 = experiment: MIC, broth microdilution (CO-ADD), A. baumannii; format: cell-based, Acinetobacter baumannii; conditions: Acinetobacter baumannii, ATCC19606, top dose 32 µg/mL
[4] = test system: K. pneumoniae ATCC 700603; experiment: MIC, broth microdilution (CO-ADD), K. pneumoniae; conditions: top dose 32 µg/mL
E. coli ATCC 25922 [5] = experiment: MIC, broth dilution, E. coli; format: cell-based, Escherichia coli; conditions: Escherichia coli, ATCC25922; E. coli ATCC 25922, 18 h
P. aeruginosa ATCC 27853 [6] = experiment: Doxycycline potentiation against P. aeruginosa; format: cell-based, Pseudomonas aeruginosa; conditions: doxycycline at 2 µg/mL (4.5 µM); for Dox/Pa fold-change (intrinsic MIC / combination MIC): P. aeruginosa ATCC 27853; for Dox/Pa: concentration required to restore doxycycline activity (combination MIC): P. aeruginosa ATCC 27853, mean n = 3
From the text: as §2

human red blood cells = experiment: Hemolytic assay; format: cell-based; conditions: 10% hemolytic activity, mean n = 2
Experimental: Human whole blood was washed three times with three volumes of 0.9% NaCl and then resuspended in the same solution to a concentration of 0.5 × 10^8 cells/mL, as determined by the manual cell count in a Neubauer hemocytometer. The washed cells were then added to the 384-well compound-containing plates for a final volume of 50 μL. After a 10 min shake on a plate shaker, the plates were then incubated for 1 h at 37 °C. After incubation, the plates were centrifuged at 1000× g for 10 min to pellet cells and debris; 25 μL of the supernatant was then transferred to a polystyrene 384-well assay plate. Hemolysis was determined by measuring the supernatant absorbance at […] (OD405). The absorbance was measured using a Tecan M1000 Pro monochromator plate reader. HC10 and HC50 (concentrations at 10% and 50% hemolysis, respectively) were calculated by a curve fitting the inhibition values vs. log (concentration) using a sigmoidal dose–response function with variable fitting values for the top, bottom, and slope.

P. aeruginosa ATCC 27853 [7] = experiment: MIC, broth dilution, P. aeruginosa; format: cell-based, Pseudomonas aeruginosa; conditions: Pseudomonas aeruginosa, ATCC27853; P. aeruginosa ATCC 27853, 18 h; read-out: MIC Pa

| Compound | MIC (MRSA ATCC 43300) [µM] | MIC [1] [µM] | MIC (C. albicans ATCC 90028) [µM] | Erythro/Ec fold-change (intrinsic MIC / combination MIC) (E. coli ATCC 25922 [2]) [fold] | Erythro/Ec: concentration required to restore erythromycin activity (combination MIC) (E. coli ATCC 25922 [2]) [µM] | IC50 at 20 h [3] [µM] | MIC (S. aureus ATCC 25923) [µM] | MIC (A. baumannii ATCC 19606) [µM] | MIC Kp [4] [µM] | MIC (E. coli ATCC 25922 [5]) [µM] | Dox/Pa fold-change (intrinsic MIC / combination MIC) (P. aeruginosa ATCC 27853 [6]) [fold] | Dox/Pa: concentration required to restore doxycycline activity (combination MIC) (P. aeruginosa ATCC 27853 [6]) [µM] | Hemolysis HC10 (human red blood cells) [µM] | MIC (P. aeruginosa ATCC 27853 [7]) [µM] |
| --- | --- | --- | --- | --- | --- | --- | --- | --- | --- | --- | --- | --- | --- | --- |
| COc1ccc2[nH]cc(C(=O)NCCCNCCCCCCCCCCCCNCCCNC(=O)c3c[nH]c4ccc(OC)cc34)c2c1.O=C(O)C(F)(F)F.O=C(O)C(F)(F)F [Compound 14f] | ≤ 0.28 | ≤ 0.28 | ≤ 0.28 | 1 | 14.1 | > 36 | 3.52 | > 36 | >36 | 14.1 | 2 | 56.2 | >36 | 112 |
| Cc1ccc2[nH]cc(C(=O)NCCCNCCCCNCCCNC(=O)c3c[nH]c4ccc(C)cc34)c2c1 [Compound 15a] | ≤ 0.34 | ≤ 0.34 | > 43 | > 4 | 67.1 | > 43 | 67.1 (≈ 34.7 µg/mL) | > 43 | >43 | > 269 | > 8 | 33.6 | >43 | > 269 |
| Cc1ccc2[nH]cc(C(=O)NCCCNCCCCCCNCCCNC(=O)c3c[nH]c4ccc(C)cc34)c2c1 [Compound 15b] | 5.18 (≈ 2.82 µg/mL) | ≤ 0.32 | > 41 | 4 | 32.4 | > 41 | 259 (≈ 141 µg/mL) | > 41 | >41 | 129 (≈ 70.3 µg/mL) | > 8 | 32.4 | >41 | > 259 |
| Cc1ccc2[nH]cc(C(=O)NCCCNCCCCCCCNCCCNC(=O)c3c[nH]c4ccc(C)cc34)c2c1 [Compound 15c] | ≤ 0.32 | ≤ 0.32 | > 41 | 4 | 63.5 | > 41 | 63.5 (≈ 35.5 µg/mL) | > 41 | >41 | 254 (≈ 142 µg/mL) | > 4 | 63.5 | >41 | > 254 |
| Cc1ccc2[nH]cc(C(=O)NCCCNCCCCCCCCNCCCNC(=O)c3c[nH]c4ccc(C)cc34)c2c1 [Compound 15d] | ≤ 0.31 | ≤ 0.31 | > 40 | 4 | 31.2 | > 40 | 31.2 (≈ 17.9 µg/mL) | > 40 | >40 | 125 (≈ 71.6 µg/mL) | 8 | 31.2 | >40 | 250 (≈ 143 µg/mL) |
| Cc1ccc2[nH]cc(C(=O)NCCCNCCCCCCCCCCNCCCNC(=O)c3c[nH]c4ccc(C)cc34)c2c1 [Compound 15e] | ≤ 0.3 | ≤ 0.3 | ≤ 0.3 | 4 | 7.54 | > 39 | 3.77 (≈ 2.27 µg/mL) | 19.3 (≈ 11.6 µg/mL) | >39 | 30.2 (≈ 18.1 µg/mL) | 4 | 15.1 | >39 | 60.3 (≈ 36.2 µg/mL) |
| Cc1ccc2[nH]cc(C(=O)NCCCNCCCCCCCCCCCCNCCCNC(=O)c3c[nH]c4ccc(C)cc34)c2c1.O=C(O)C(F)(F)F.O=C(O)C(F)(F)F [Compound 15f] | ≤ 0.29 | ≤ 0.29 | ≤ 0.29 | 1 | 29.2 | 0.55 | 3.65 | ≤ 0.29 | >37.3 | 29.2 | 0.5 | 117 | >37 | 58.3 |
| O=C(NCCCNCCCCCCCNCCCNC(=O)c1c[nH]c2c(F)cccc12)c1c[nH]c2c(F)cccc12 [Compound 16c] | ≤ 0.31 | ≤ 0.31 | > 40 | 1 | 252 | > 40 | > 251 | > 40 | >40 | > 251 | > 4 | 62.9 | >40 | 251 (≈ 142 µg/mL) |
| O=C(NCCCNCCCCCCCCNCCCNC(=O)c1c[nH]c2c(F)cccc12)c1c[nH]c2c(F)cccc12 [Compound 16d] | 9.89 (≈ 5.74 µg/mL) | ≤ 0.31 | > 40 | 1 | 247 | > 40 | 247 (≈ 143 µg/mL) | > 40 | >40 | 247 (≈ 143 µg/mL) | > 8 | 30.9 | >40 | 247 (≈ 143 µg/mL) |
| O=C(NCCCNCCCCCCCCCCNCCCNC(=O)c1c[nH]c2c(F)cccc12)c1c[nH]c2c(F)cccc12 [Compound 16e] | ≤ 0.3 | ≤ 0.3 | ≤ 0.3 | 1 | 239 | > 38 | 239 (≈ 145 µg/mL) | > 38 | >38 | 239 (≈ 145 µg/mL) | 8 | 29.9 | >38 | 239 (≈ 145 µg/mL) |
| O=C(NCCCNCCCCCCCCCCCCNCCCNC(=O)c1c[nH]c2c(F)cccc12)c1c[nH]c2c(F)cccc12.O=C(O)C(F)(F)F.O=C(O)C(F)(F)F [Compound 16f] | ≤ 0.29 | ≤ 0.29 | > 37 | 1 | 231 | > 37 | 231 | > 37 | >37 | 231 | 1 | 116 | >37 | 116 |

Source: article PMC10967822, “Antimicrobial Indole-3-Carboxamido-Polyamine Conjugates Target Bacterial Membranes and Are Antibiotic Potentiators” (Biomolecules, 2024)
